Data set [1] concerns Male Zucker fa/fa rats. Description: OGTT on day 21 of repeated dosing. It is filed as in vivo, rat. How it is done:
OGTT: A final OGTT was performed on day 21 with blood sampling from the tail vein. Blood samples from the tail vein were taken at-12 h (the night before day 21), at 0 min (immediately before the beginning of OGTT), at 10, 20, 30, 40, 50, 60, 80, 100 and 120 min. Blood samples were taken in 20 µl glass capillaries for blood glucose measurements and in Eppendorf tubes (100 µl). The latter were immediately centrifuged and the plasma fractions were stored at-20°C for insulin analysis.
(§1) Blood glucose: Glucose levels were measured using the glucose oxidase procedure (Super G Glukosemeßgerät; Dr. Müller Gerätebau, Freital, Germany).
(§2) Plasma insulin: Insulin concentrations were assayed by the antibody RIA method (LINCO Research, Inc. St Charles, Mo., USA).

Data set [2] has as its system Male Zucker fa/fa rats. Description: Repeated once-daily dosing for 21 days: morning values and day-night profile of blood glucose and plasma insulin. It is filed as in vivo, rat. As for the experimental part:
The parameters monitored were morning blood glucose and plasma insulin levels. In a day-night profile, glycemia and insulinaemia were monitored from day 16 to day 17. An OGTT was performed finally on day 21 to monitor blood glucose and plasma insulin kinetics to assess changes in glucose tolerance. Glibenclamide (DAB 1996; R011150/33372) was donated by Berlin-Chemie (Berlin, Germany). Male Zucker (fa/fa) rats of the body Weight class of 300g were purchased from Charles River (Sulzfeld, Germany).
Housing Conditions: Animals were kept single-housed under conventional conditions with controlled temperature (22±2 °C) on a 12/12 hours light/dark cycle (light on at 06:00 a.m.). Standard pellets (ssniff®, Soest, Germany) and tap water acidified with HCl were allowed ad libitum.
Catheterization of Carotid Artery: After one week of adaptation carotid catheters were implanted in the rats under general anesthesia (injection of 0.25 ml/kg i.p. Rompun® [2%], Bayer, Germany) and 0.5 ml/kg i.p. Velonarkon® (Arzneimittelwerk Dresden, Germany). The animals were allowed to recover for one week. The catheter was flushed with heparin-saline (104 IU/ml) three times per week.
Thereafter, the non-diabetic Wistar rats were treated orally once daily with RP (5 mg/kg b.w.) or TP (21.51 mg/kg b.w.) and the diabetic Zucker rats were treated orally once daily with RP (1 mg/kg b.w.) or TP (21.61 mg/kg b.w.) for 21 days at 05.00 p.m. (before regular food intake in the dark phase). The controls were given 1% cellulose solution orally (5 ml/kg). Blood samples were taken every morning at 07.30 a.m. from tail veins for measurement of blood glucose and plasma insulin. The last blood samples of this part of the program were taken at 07.30 a.m. on the 15th day to measure blood glucose and plasma insulin. The oral drug therapy was continued for one week. Recording the day-night profile under the above therapy blood glucose (Δt ≡ 3 h) and plasma insulin (Δt = 3-6 h) wore monitored from day 16 (at b5.40 p.m. beginning) to day 17 (at 02.00 p.m. end).
as §1, §2

Data set [3] concerns the target human plasma containing DP IV-activity (Homo sapiens, UniProt P27487). In words: Proteolytic processing of peptides in human plasma with or without P32/98, MALDI-TOF. The note with it: human EDTA-plasma with 9.8 µMol/l isoleucyl thiazolidine hemifumarate. How it is done: Matrix-assisted laser desorption/ionisation mass spectrometry was carried out using the Hewlett-Packard G2025 LD-TOF System with a linear tune of flight analyzer. […] The spectrometer was calibrated externally. […] Samples of the reaction mixtures were removed at various time intervals and mixed with equal volumes of the matrix solution. By mixing assay sample and matrix, the low pH of the matrix solution stopped the enzymatic reaction. A small volume (< 1 µl) of this mixture was transferred to a probe tip and immediately evaporated in a Hewlett-Packard G2024A Sample Prep Accessory to ensure rapid and homogenous sample crystallization. All spectra were generated using automatic mode by averaging 250 single shots selected by the signal-to-noise ratio.
The DP IV used in this study was purified from porcine kidney. […] In the case of plasma, fresh prepared human EDTA-plasma from healthy subjects was used. […] Capillary zone electrophoresis (CZE) investigations were carried out using a system from Beckman. Peptides and enzymes were incubated in the capillary electrophoresis system at 37°C using a 20 mM phosphate buffer pH7.4. Decrease of substrate was determined by subsequent measurements of the same sample. Separation was carried out using a 0.1 M phosphate buffer pH 2.5, a 50 µm * 30 cm fused silica capillary and 16 kV constant voltage. Peptides were detected at 200 nm. Substrate concentrations were calculated from the height of the peptide peaks, For determination of kinetic constants the degradation velocity from at least 4 substrate concentrations were determined and fitted according the Michaelis-Menten equation using Graphit 4.0.

Data set [4] has as its system human plasma containing DP IV-activity. The description is as above. It is filed as in vitro ADME. The settings on record: inhibitor 9.8 µMol/l. From the text: The instrument was equipped with a 337 nm nitrogen laser, a potential acceleration source (5 kV) and a 1.0 m flight tube. […] The spectrometer was calibrated externally.
Peptides were detected at 200 nm.

For the next data set, the target named is T1, porcine DP IV (Sus scrofa, UniProt P22411).
T1 construct: from tissue; host or cells: porcine kidney
T1 sequence (P22411 whole entry): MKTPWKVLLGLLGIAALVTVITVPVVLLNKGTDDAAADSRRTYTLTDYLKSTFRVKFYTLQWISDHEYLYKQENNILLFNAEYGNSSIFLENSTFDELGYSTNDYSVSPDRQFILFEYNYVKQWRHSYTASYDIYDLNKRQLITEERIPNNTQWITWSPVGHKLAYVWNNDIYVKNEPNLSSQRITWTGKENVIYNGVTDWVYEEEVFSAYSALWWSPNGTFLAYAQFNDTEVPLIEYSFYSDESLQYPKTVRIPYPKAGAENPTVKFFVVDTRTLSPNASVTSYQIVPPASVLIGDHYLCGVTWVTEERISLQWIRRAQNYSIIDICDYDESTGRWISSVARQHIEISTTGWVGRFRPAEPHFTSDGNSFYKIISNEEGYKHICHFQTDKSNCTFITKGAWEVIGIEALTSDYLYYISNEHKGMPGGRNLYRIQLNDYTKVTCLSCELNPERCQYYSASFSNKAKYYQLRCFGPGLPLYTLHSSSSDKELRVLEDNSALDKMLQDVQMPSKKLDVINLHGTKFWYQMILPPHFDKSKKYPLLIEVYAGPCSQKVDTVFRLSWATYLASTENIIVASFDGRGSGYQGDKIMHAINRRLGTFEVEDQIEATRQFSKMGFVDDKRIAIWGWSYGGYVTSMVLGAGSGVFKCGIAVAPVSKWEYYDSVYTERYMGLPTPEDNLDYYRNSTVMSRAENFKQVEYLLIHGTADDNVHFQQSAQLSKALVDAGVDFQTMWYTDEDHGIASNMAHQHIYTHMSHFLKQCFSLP
Description: Kinetic constants of peptide degradation by DP IV, capillary zone electrophoresis (CZE). In kind it is biochemical. The note with it: 37°C, phosphate buffer pH7.4, read-out: Cleavage, porcine DP IV, Km.

Several values for one entry are separate records, joined by “and”; a condition that tells them apart may be missing. Equal values may be shown once. Ends that are not written are not given here.

human plasma containing DP IV-activity (Homo sapiens, UniProt P27487), sequence (P27487 39-766 limits assumed): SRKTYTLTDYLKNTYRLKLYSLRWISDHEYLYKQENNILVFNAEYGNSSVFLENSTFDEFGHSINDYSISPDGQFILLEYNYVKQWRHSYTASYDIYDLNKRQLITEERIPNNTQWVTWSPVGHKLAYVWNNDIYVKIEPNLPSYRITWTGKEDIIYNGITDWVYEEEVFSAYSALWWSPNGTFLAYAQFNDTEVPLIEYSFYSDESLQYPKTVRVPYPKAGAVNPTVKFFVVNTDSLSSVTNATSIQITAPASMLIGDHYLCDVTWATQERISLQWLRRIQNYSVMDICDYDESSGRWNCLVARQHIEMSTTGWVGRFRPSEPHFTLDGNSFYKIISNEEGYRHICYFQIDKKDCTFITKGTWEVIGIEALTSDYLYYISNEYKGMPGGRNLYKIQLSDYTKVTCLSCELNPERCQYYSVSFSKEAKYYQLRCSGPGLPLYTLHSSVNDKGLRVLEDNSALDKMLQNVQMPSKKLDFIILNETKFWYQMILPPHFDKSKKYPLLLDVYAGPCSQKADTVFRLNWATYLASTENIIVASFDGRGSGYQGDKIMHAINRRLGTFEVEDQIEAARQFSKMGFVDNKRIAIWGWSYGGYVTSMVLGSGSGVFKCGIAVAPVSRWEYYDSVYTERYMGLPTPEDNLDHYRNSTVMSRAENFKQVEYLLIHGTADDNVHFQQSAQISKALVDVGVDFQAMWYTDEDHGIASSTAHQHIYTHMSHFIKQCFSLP
Description for porcine DP IV: The DP IV used in this study was purified from porcine kidney. The specific activity measured using Gly-Pro-4-nitroanilide as a chromogenic substrate was at least 5 units/mg. […] Capillary zone electrophoresis (CZE) investigations were carried out using a system from Beckman. Peptides and enzymes were incubated in the capillary electrophoresis system at 37°C using a 20 mM phosphate buffer pH7.4. Decrease of substrate was determined by subsequent measurements of the same sample. Separation was carried out using a 0.1 M phosphate buffer pH 2.5, a 50 µm * 30 cm fused silica capillary and 16 kV constant voltage. Peptides were detected at 200 nm. Substrate concentrations were calculated from the height of the peptide peaks, For determination of kinetic constants the degradation velocity from at least 4 substrate concentrations were determined and fitted according the Michaelis-Menten equation using Graphit 4.0.

Turning to `COc1ccc(Cl)cc1C(=O)NCCc1ccc(S(=O)(=O)NC(=O)NC2CCCCC2)cc1` [glibenclamide], the “Glycemia at last drug application before overnight fasting” value in the data set on Male Zucker fa/fa rats [1] (05.00 p.m., night before day 21) was 8.81 ± 1.21 mmol/L. Also, the “Blood glucose increase after the glucose load” value with Male Zucker fa/fa rats [1] (OGTT day 21) is “about 11 mmol/l”. The “glucose area under the curve (G-AUC0-120 min)” value in the data set with Male Zucker fa/fa rats [1] (OGTT day 21) was determined as 1096 ± 76 mmol·min/L. Further, in the data set with Male Zucker fa/fa rats [1] (day 21, 07.30 a.m.), the “Glycemia after overnight fasting (basal, before OGTT)” value stood at 4.91 ± 0.37 mmol/L. The OGTT blood glucose in the data set on Male Zucker fa/fa rats [1] (day 21, 50 min) was found to be 16.33 ± 0.98 mmol/L; in the data set with Male Zucker fa/fa rats [1] (day 21, 80 min) it was 16.24 ± 1.09 mmol/L; in the data set on Male Zucker fa/fa rats [1] (day 21, 100 min), 15.13 ± 0.76 mmol/L; in the data set on Male Zucker fa/fa rats [1] (day 21, 120 min) it was 14.81 ± 0.66 mmol/L. Moreover, in the data set with Male Zucker fa/fa rats [1] (day 21, overnight fasting, listed as RP), the “Fasting plasma insulin at the beginning of the OGTT” value is 11.8±1.5 ng/ml and ~ 12.5 ng/ml. In addition, the “Day-night profile: mean blood glucose” value in the data set on Male Zucker fa/fa rats [2] (Zucker rats, 02.00 p.m. next day) turned out to be 7.34 ± 0.77 mmol/L; in the data set with Male Zucker fa/fa rats [2] (Zucker rats, day 16, 05.00 p.m., RP 1 mg/kg or TP 21.61 mg/kg orally once daily), 7.96 ± 1.13 mmol/L; with Male Zucker fa/fa rats [2] (Zucker rats, day 16, 11.00 p.m.), 14.80 ± 1.46 mmol/L; in the data set on Male Zucker fa/fa rats [2] (Zucker rats, day 17, 11.00 a.m.), 7.66 ± 1.22 mmol/L. For the same molecule, the “Day-night profile: plasma insulin” value was 58.3 ± 7.3 ng/mL in the data set with Male Zucker fa/fa rats [2] (Zucker rats, 02.00 p.m. the next day); 50.0 ± 8.2 ng/mL with Male Zucker fa/fa rats [2] (Zucker rats, day 16, 05.00 p.m.); 57.3 ± 8.2 ng/mL in the data set on Male Zucker fa/fa rats [2] (Zucker rats, day 16, 08.00 p.m.); 76.3 ± 8.6 ng/mL with Male Zucker fa/fa rats [2] (Zucker rats, day 17, 05.00 a.m.). The “Increase of morning blood glucose” value in the data set with Male Zucker fa/fa rats [2] (Zucker rats, within two days of therapy) was “about 1.5 mmol/l”. The “Increase of insulin output” value with Male Zucker fa/fa rats [2] (obese Zucker rat, subchronic treatment, total daily insulin secretion) was 27%.

Turning to “Cholecystokinin [Cholecystokinin (CCK21)]”, the “Cleavage, human plasma +P32/98” value in data set [3] is “slow unspecific degradation by aminopeptidases and ø”.

Turning to “Di-[2S,3S]-2-Amino-3-methyl-pentanoic-1,3-thiazolidine fumarate [P32/98]”, the “Hydrolysis of gastrointestinal peptides in human plasma” value in data set [4] is “blocked”.

“Gastrin releasing peptide (VPLPAGGGTVLTKMYPRGNHWAVGHLM; ends and bridges not checked; UniProt P07492 24-50, looked up) [Gastrin releasing peptide (GRP)]”: the “Cleavage, human plasma +P32/98” value in data set [3] is listed as “ø”.

“Peptide histidin methionine [Peptide histidin methionine (PHM)]”: on porcine DP IV, the Km was found to be 35 µM. Moreover, the “Cleavage, human plasma +P32/98” value in data set [3] is listed as “ø”.

With “Pituitary adenylate cyclase activating polypeptide 27”, in data set [3], the “Cleavage, human plasma +P32/98” value is listed as “ø”.

Consider Secretin, for which the “Cleavage, human plasma +P32/98” value in data set [3] is “ø”.

Somatostatin 14: the Km on porcine DP IV is 42 µM.

Consider Somatostatin 28, for which, in the data set with porcine DP IV, the Km was 6 µM.

(Values after patent EP1528931B1, “DIPEPTIDYL PEPTIDASE IV INHIBITORS FOR DECREASING THE RATE OF CHRONIC WEIGHT GAIN” (Prosidion Ltd., priority 2002, dated 2004).)
